pIC50: −log10 of the molar value.
Experiments:
[1] = molecular target: Protein kinase C theta type (Homo sapiens) (UniProt Q04759); test: PKCtheta (h) Eurofins kinase panel; settings: Compound concentration 1.0 uM
[2] = molecular target: Serine/threonine-protein kinase A-Raf (Homo sapiens) (UniProt P10398); test: A-Raf(h) Eurofins kinase panel; settings: Compound concentration 1.0 uM
[3] = molecular target: Casein kinase II subunit alpha' (Homo sapiens) (UniProt P19784); test: CK2alpha2(h) Eurofins kinase panel; settings: Compound concentration 1.0 uM
[4] = molecular target: Proto-oncogene tyrosine-protein kinase ROS (Homo sapiens) (UniProt P08922); test: Ros(h) Eurofins kinase panel; settings: Compound concentration 1.0 uM
[5] = molecular target: Mitogen-activated protein kinase kinase kinase kinase 5 (Homo sapiens) (UniProt Q9Y4K4); test: MAP4K5(h) Eurofins kinase panel; settings: Compound concentration 1.0 uM
[6] = molecular target: Testis-specific serine/threonine-protein kinase 2 (Homo sapiens) (UniProt Q96PF2); test: TSSK2(h) Eurofins kinase panel; settings: Compound concentration 1.0 uM
SW780 = test: SW780 cell line Proliferation assay; format: functional, Homo sapiens; settings: time 3 day
SNU-16 = test: Snu16 cell line Proliferation assay; format: functional, Homo sapiens; settings: time 3 day
[7] = molecular target: T1, Mitogen-activated protein kinase kinase kinase 7 (Homo sapiens) (UniProt O43318); test: TAK1(h) Eurofins kinase panel; settings: Compound concentration 1.0 uM
T1 sequence (whole entry): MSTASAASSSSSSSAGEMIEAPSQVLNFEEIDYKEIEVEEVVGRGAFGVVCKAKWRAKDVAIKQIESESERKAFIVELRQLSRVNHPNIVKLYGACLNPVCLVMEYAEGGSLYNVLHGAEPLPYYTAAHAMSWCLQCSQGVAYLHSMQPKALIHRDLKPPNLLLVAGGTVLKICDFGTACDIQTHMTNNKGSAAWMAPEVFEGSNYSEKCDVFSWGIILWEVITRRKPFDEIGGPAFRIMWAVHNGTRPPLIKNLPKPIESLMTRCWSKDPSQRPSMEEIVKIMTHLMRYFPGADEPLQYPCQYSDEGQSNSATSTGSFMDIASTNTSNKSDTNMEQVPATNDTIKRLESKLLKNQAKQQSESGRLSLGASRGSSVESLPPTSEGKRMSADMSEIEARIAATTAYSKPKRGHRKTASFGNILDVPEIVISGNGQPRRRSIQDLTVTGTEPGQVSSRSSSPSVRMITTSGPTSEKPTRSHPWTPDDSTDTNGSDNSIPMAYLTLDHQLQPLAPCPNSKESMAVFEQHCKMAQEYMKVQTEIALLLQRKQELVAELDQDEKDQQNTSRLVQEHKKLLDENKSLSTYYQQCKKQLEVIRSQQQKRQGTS

[8] = molecular target: Protein kinase C zeta type (Homo sapiens) (UniProt Q05513); test: PKCzeta(h) Eurofins kinase panel; settings: Compound concentration 1.0 uM
[9] = molecular target: Myosin light chain kinase 2, skeletal/cardiac muscle (Homo sapiens) (UniProt Q9H1R3); test: MYLK2(h) Eurofins kinase panel; settings: Compound concentration 1.0 uM
[10] = molecular target: Mitogen-activated protein kinase 11 (Homo sapiens) (UniProt Q15759); test: SAPK2b(h) Eurofins kinase panel; settings: Compound concentration 1.0 uM
[11] = molecular target: T2, Inhibitor of nuclear factor kappa-B kinase subunit alpha (Homo sapiens) (UniProt O15111); test: IKKalpha(h) Eurofins kinase panel; settings: Compound concentration 1.0 uM
T2 sequence (whole entry): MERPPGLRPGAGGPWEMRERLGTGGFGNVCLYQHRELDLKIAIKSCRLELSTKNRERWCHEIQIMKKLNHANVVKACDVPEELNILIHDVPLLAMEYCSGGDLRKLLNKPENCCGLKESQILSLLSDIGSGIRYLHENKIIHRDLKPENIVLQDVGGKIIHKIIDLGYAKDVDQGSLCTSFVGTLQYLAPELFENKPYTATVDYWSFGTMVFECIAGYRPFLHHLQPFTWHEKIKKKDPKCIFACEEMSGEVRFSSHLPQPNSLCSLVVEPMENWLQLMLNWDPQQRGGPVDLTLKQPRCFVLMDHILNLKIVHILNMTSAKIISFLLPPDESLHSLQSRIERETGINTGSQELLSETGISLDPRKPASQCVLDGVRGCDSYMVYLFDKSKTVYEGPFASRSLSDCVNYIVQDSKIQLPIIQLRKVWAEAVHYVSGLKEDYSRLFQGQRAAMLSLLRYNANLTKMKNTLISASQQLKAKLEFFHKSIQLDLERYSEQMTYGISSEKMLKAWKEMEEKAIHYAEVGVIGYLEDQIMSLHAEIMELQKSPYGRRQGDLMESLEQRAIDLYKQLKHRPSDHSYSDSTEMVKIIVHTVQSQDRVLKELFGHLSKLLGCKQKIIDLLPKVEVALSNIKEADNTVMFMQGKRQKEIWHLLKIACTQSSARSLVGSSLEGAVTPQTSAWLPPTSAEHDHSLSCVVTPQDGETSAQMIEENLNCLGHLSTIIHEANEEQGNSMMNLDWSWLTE

[12] = molecular target: Phosphatidylinositol 4-phosphate 3-kinase C2 domain-containing subunit alpha (Homo sapiens) (UniProt O00443); test: PI3KC2a(h) Eurofins kinase panel; settings: Compound concentration 1.0 uM
[13] = molecular target: 5'-AMP-activated protein kinase catalytic subunit alpha-2 (Homo sapiens, UniProt P54646)
[14] = molecular target: Eukaryotic translation initiation factor 2-alpha kinase 1 (Homo sapiens) (UniProt Q9BQI3); test: HRI(h) Eurofins kinase panel; settings: Compound concentration 1.0 uM
[15] = molecular target: Receptor-type tyrosine-protein kinase FLT3 (Homo sapiens) (UniProt P36888); settings: Compound concentration 1.0 uM
ATR/ATRIP (Homo sapiens) = ATR/ATRIP (Homo sapiens) (UniProt Q13535+Q8WXE1); test: ATR/ATRIP(h) Eurofins kinase panel; format: protein-complex assay; settings: Compound concentration 1.0 uM
PANC-1 = test: PANC-1 cell line Proliferation assay; format: functional, Homo sapiens; settings: time 3 day
A-375 = test: A375 cell line Proliferation assay; format: functional, Homo sapiens; settings: time 3 day
[16] = molecular target: T3, Serine/threonine-protein kinase 17A (Homo sapiens) (UniProt Q9UEE5); test: DRAK1(h) Eurofins kinase panel; settings: Compound concentration 1.0 uM
T3 sequence (whole entry): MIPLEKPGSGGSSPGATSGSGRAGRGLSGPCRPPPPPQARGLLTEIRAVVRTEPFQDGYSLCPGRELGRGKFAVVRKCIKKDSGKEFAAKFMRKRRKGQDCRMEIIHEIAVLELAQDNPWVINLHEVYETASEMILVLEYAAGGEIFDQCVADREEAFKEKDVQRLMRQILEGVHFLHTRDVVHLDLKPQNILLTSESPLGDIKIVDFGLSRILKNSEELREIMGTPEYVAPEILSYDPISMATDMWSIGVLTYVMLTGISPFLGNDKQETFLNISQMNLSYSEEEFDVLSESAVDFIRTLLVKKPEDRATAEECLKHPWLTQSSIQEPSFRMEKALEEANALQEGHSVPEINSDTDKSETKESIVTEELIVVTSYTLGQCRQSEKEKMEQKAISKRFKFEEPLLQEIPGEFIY

[17] = molecular target: Glycogen synthase kinase-3 beta (Homo sapiens) (UniProt P49841); test: GSK3β(h) Eurofins kinase panel; settings: Compound concentration 1.0 uM
Chain of Glycogen synthase kinase-3 beta (Homo sapiens) (P49841 whole entry, looked up): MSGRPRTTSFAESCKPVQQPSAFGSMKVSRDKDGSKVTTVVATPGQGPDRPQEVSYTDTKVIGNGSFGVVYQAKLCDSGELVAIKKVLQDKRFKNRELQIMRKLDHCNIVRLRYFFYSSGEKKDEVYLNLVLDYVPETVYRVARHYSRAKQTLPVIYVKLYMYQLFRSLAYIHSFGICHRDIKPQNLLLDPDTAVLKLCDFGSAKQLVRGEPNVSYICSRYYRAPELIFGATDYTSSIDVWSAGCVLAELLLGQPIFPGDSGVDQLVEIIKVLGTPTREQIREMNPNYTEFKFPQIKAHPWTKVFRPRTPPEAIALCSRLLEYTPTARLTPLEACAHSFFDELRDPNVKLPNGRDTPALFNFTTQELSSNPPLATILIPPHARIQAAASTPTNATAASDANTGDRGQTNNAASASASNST

Chain of Receptor-type tyrosine-protein kinase FLT3 (Homo sapiens) (P36888 whole entry): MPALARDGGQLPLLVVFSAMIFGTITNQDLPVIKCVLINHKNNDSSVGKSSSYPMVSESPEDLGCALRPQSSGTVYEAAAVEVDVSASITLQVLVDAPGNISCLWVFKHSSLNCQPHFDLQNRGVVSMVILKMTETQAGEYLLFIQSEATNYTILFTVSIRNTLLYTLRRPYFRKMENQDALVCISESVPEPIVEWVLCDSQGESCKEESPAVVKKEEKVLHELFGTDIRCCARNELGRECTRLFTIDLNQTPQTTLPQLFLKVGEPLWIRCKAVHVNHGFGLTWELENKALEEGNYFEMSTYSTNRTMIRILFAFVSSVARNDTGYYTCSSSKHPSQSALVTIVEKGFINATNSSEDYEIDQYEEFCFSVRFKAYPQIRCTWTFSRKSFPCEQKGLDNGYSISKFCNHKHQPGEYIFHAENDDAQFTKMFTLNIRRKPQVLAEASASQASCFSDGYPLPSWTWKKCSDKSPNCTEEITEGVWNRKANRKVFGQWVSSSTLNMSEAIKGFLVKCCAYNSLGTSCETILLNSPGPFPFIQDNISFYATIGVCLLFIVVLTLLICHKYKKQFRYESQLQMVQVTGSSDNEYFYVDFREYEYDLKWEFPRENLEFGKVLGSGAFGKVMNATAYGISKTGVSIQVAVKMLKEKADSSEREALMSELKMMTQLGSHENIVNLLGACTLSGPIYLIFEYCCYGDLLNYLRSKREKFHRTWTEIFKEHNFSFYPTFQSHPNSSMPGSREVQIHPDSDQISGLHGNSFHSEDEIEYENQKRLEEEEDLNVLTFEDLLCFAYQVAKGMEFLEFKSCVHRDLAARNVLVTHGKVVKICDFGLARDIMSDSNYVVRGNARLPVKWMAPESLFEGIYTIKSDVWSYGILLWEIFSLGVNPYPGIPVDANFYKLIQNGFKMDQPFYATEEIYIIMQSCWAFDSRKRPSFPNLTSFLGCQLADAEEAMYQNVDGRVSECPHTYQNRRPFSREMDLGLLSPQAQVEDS
Chain of Eukaryotic translation initiation factor 2-alpha kinase 1 (Homo sapiens) (Q9BQI3 whole entry): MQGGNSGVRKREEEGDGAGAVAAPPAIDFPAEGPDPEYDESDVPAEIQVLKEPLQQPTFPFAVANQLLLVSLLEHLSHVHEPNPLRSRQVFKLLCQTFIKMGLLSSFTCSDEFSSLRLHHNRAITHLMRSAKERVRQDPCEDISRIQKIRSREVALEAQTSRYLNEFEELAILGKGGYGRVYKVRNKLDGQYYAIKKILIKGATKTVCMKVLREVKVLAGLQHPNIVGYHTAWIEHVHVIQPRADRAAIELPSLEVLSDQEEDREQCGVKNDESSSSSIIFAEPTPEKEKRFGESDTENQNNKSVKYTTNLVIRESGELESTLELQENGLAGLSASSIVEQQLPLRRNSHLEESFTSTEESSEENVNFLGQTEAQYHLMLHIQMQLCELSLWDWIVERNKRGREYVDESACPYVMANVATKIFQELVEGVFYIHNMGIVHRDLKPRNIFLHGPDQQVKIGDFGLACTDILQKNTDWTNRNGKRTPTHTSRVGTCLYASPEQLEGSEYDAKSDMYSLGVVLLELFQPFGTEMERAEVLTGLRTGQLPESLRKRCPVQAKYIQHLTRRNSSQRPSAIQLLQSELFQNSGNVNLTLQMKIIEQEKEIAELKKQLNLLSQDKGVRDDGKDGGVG
Chain of Mitogen-activated protein kinase 11 (Homo sapiens) (Q15759 whole entry): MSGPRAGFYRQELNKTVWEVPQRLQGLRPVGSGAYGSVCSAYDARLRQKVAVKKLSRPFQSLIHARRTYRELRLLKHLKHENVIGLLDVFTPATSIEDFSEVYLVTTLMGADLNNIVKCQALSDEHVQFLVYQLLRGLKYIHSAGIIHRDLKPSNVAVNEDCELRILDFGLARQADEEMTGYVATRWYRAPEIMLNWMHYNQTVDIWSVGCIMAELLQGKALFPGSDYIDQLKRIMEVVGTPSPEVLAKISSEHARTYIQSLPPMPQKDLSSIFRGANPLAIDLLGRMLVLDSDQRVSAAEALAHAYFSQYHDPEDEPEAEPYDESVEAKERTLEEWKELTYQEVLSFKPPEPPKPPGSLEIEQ
Chain of Protein kinase C zeta type (Homo sapiens) (Q05513 whole entry): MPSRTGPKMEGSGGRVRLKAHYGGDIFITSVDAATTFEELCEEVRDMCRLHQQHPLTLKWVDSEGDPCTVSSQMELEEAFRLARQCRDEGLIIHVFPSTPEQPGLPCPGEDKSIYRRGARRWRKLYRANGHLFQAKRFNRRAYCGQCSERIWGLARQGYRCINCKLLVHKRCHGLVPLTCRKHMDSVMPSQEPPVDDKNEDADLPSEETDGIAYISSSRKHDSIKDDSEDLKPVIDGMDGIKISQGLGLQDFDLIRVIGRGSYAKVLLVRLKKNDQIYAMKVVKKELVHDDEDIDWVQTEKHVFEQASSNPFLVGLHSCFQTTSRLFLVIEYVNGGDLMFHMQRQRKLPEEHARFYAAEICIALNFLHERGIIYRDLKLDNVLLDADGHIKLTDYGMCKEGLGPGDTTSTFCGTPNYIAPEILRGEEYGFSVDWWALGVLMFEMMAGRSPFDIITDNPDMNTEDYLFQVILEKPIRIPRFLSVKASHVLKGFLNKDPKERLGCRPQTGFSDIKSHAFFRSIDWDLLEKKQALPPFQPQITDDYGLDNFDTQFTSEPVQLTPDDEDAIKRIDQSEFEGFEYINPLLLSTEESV
Chain of 5'-AMP-activated protein kinase catalytic subunit alpha-2 (P54646 whole entry): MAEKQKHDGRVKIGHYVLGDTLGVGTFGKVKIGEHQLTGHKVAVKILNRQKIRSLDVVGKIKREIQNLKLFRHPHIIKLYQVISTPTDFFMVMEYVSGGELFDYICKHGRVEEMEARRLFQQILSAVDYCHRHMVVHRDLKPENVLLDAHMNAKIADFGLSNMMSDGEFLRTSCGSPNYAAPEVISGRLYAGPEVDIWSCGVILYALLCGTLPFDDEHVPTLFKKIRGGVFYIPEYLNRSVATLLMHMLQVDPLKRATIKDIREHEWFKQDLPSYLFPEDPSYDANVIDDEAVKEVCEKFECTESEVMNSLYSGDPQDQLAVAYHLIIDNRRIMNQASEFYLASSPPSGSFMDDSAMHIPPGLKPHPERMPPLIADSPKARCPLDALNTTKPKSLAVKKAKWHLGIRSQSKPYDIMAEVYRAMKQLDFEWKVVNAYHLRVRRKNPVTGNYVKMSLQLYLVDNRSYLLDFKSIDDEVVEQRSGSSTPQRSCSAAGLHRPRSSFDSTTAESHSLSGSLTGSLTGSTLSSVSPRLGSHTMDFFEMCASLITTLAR
Chain of Serine/threonine-protein kinase A-Raf (Homo sapiens) (P10398 whole entry): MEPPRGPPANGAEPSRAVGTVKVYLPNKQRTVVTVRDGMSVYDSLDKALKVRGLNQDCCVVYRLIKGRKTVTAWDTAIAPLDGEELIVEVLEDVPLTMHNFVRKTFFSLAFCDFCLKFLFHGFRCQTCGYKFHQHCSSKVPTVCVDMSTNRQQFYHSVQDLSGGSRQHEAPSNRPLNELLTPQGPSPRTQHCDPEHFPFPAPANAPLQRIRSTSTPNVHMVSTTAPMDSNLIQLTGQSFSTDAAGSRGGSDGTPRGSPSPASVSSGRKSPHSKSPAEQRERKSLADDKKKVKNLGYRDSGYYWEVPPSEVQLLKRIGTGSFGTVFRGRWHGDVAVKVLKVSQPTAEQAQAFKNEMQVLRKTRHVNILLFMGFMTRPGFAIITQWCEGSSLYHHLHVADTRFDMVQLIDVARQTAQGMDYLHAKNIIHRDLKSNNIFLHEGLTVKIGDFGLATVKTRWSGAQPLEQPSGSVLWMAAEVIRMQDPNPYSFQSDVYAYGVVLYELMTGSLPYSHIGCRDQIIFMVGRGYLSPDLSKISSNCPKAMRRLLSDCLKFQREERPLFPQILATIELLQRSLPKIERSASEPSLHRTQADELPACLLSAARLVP
Chain of Casein kinase II subunit alpha' (Homo sapiens) (P19784 whole entry, looked up): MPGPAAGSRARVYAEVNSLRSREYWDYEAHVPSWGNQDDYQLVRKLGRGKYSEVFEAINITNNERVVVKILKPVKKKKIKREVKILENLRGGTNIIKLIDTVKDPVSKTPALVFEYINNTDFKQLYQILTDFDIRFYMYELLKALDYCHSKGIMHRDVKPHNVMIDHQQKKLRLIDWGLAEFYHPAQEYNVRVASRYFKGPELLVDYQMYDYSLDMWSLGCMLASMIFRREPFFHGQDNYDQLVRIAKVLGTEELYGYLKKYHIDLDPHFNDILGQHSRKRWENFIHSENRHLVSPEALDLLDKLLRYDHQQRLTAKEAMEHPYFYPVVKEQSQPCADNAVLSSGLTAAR
Chain of Testis-specific serine/threonine-protein kinase 2 (Homo sapiens) (Q96PF2 whole entry): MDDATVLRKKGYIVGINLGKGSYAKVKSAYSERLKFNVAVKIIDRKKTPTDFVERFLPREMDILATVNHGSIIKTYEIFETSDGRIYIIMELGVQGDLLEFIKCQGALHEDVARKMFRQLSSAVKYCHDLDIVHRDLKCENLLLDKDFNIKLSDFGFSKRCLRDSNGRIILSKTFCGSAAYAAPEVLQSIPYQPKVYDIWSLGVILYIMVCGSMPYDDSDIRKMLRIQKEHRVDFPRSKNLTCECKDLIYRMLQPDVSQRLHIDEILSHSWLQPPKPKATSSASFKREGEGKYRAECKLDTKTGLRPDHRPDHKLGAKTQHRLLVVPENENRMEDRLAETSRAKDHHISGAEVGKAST

## CCc1ccccc1C(=O)Nc1n[nH]c2c(C)c(F)c(C3C(C#N)=C(C)N(C)C(C)=C3C#N)cc12 [BAY-3827]
[1]
  % residual kinase activity: 33%
[2]
  % residual kinase activity: 78%
[3]
  % residual kinase activity: 109%
[4]
  % residual kinase activity: 100%
[5]
  % residual kinase activity: 95%
[6]
  % residual kinase activity: 105%
SW780
  Cell Proliferation IC50: 10.3 µM
SNU-16
  Cell Proliferation IC50: 11.6 µM
[7]
  % residual kinase activity: 104%
[8]
  % residual kinase activity: 99%
[9]
  % residual kinase activity: 89%
[10]
  % residual kinase activity: 110%
[11]
  % residual kinase activity: 107%
[12]
  % residual kinase activity: 103%
[13]
  pIC50: 8.15
[14]
  % residual kinase activity: 100%
[15]
  % residual kinase activity: 7%
ATR/ATRIP (Homo sapiens)
  % residual kinase activity: 94%
PANC-1
  Cell Proliferation IC50: 17.1 µM
A-375
  Cell Proliferation IC50: 22.8 µM
[16]
  % residual kinase activity: 119%
[17]
  % residual kinase activity: 58%

— ChEMBL document CHEMBL4507319 (2021)
